Results taken from patent publication US12522851B2, “Method for purifying indole-3-lactic acid from Lactobacillus plantarum fermentation supernatant” (Zhejiang Gongshang University, priority 2021, dated 2026).

How the values were obtained:
Experiment in all cases: Oxford cup method antibacterial activity
Assay type in all cases: cell-based
[1] = system: Staphylococcus carnosus pot20; details: 150 μL of 10 mg/ml in 1% acetonitrile aqueous solution, 1% indicator bacteria, read-out: Diameter of inhibition zone
Method: (§1) The antibacterial activity of indole-3-lactic acid obtained by purification in step III in Embodiment 2 (i.e., concentrated H4 with a purity of 99.00%) was determined by an oxford cup method. 1% (volume concentration) of indicator bacteria was added to 150 μL of 10 mg/ml indole-3-lactic acid (dissolved in 1% acetonitrile aqueous solution). […] Listeria monocytogenes LM1, Bacillus subtilis BAS2, Salmonella paratyphi B CMCC50094, Salmonella paratyphi A CMCC50093, Salmonella enterica subsp. arizonae CMCC (B) 47001 and Salmonella typhimurium CMCC50015 were purchased from National Center for Medical Culture Collections (CMCC). Escherichia coli DH5a was purchased from Sangon Biotech (Shanghai) Co., Ltd. Staphylococcus aureus ATCC25923, Pseudomonas aeruginosa ATCC47085, Salmonella enterica subsp. enterica ATCC14028 and Salmonella choleraseuis ATCC13312 were purchased from American Type Culture Collection (ATCC). Micrococcus luteus CICC 10209 was purchased from China Center of Industrial Culture Collection (CICC). Staphylococcus citreus LC5 was purchased from China Center for Type Culture Collection (CCTCC). Staphylococcus simulans, Staphylococcus warneri, Staphylococcus carnosus pCA44 and Staphylococcus carnosus pot20 were presented by Professor Eefjan Breukink of Utrecht University in the Netherlands.

[2] = system: Salmonella enterica subsp. arizonae CMCC(B)47001; details: 150 μL of 10 mg/ml in 1% acetonitrile aqueous solution, 1% indicator bacteria, read-out: Diameter of inhibition zone
Method: as §1

[3] = system: Listeria monocytogenes LM1; details: 150 μL of 10 mg/ml in 1% acetonitrile aqueous solution, 1% indicator bacteria, read-out: Diameter of inhibition zone
Method: as §1

[4] = system: Salmonella paratyphi B CMCC50094; details: Salmonella enterica, 150 μL of 10 mg/ml in 1% acetonitrile aqueous solution, 1% indicator bacteria, read-out: Diameter of inhibition zone
Method: as §1

[5] = system: Salmonella paratyphi A CMCC50093; details: Salmonella enterica, 150 μL of 10 mg/ml in 1% acetonitrile aqueous solution, 1% indicator bacteria, read-out: Diameter of inhibition zone
Method: as §1

[6] = system: Pseudomonas aeruginosa ATCC47085; details: 150 μL of 10 mg/ml in 1% acetonitrile aqueous solution, 1% indicator bacteria, read-out: Diameter of inhibition zone
Method: as §1

Staphylococcus simulans = details: 150 μL of 10 mg/ml in 1% acetonitrile aqueous solution, 1% indicator bacteria, read-out: Diameter of inhibition zone
Method: as §1

[7] = system: Micrococcus luteus CICC 10209; details: CICC10209, 150 μL of 10 mg/ml in 1% acetonitrile aqueous solution, 1% indicator bacteria, read-out: Diameter of inhibition zone
Method: as §1

[8] = system: Staphylococcus carnosus pCA44; details: PCA44, read-out: Diameter of inhibition zone
Method: as §1

Bacillus subtilis BAS2 = details: 150 μL of 10 mg/ml in 1% acetonitrile aqueous solution, 1% indicator bacteria, read-out: Diameter of inhibition zone
Method: as §1

[9] = system: Staphylococcus aureus ATCC25923; details: 150 μL of 10 mg/ml in 1% acetonitrile aqueous solution, 1% indicator bacteria, read-out: Diameter of inhibition zone
Method: as §1

[10] = system: Salmonella choleraseuis ATCC13312; details: 150 μL of 10 mg/ml in 1% acetonitrile aqueous solution, 1% indicator bacteria, read-out: Diameter of inhibition zone
Method: as §1

Escherichia coli DH5α = details: 150 μL of 10 mg/ml in 1% acetonitrile aqueous solution, 1% indicator bacteria, read-out: Diameter of inhibition zone
Method: as §1

[11] = system: Staphylococcus citreus LC5; details: 150 μL of 10 mg/ml in 1% acetonitrile aqueous solution, 1% indicator bacteria, read-out: Diameter of inhibition zone
Method: as §1

[12] = system: Salmonella typhimurium CMCC50015; details: Salmonella enterica, 150 μL of 10 mg/ml in 1% acetonitrile aqueous solution, 1% indicator bacteria, read-out: Diameter of inhibition zone
Method: as §1

Staphylococcus warneri = details: 150 μL of 10 mg/ml in 1% acetonitrile aqueous solution, 1% indicator bacteria, read-out: Diameter of inhibition zone
Method: as §1

[13] = system: Salmonella enterica subsp. enterica ATCC14028; details: 150 μL of 10 mg/ml in 1% acetonitrile aqueous solution, 1% indicator bacteria, read-out: Diameter of inhibition zone
Method: as §1

SMILES: O=C(O)C(O)Cc1c[nH]c2ccccc12 (centres unmarked) [indole-3-lactic acid, Indole-3-lactic acid]
- zone of inhibition at 10000 µg/mL [1]: 15 ± 0.55 mm
- zone of inhibition at 10000 µg/mL [2]: 13.4 ± 0.45 mm
- zone of inhibition at 10000 µg/mL [3]: 10.95 ± 0.07 mm
- zone of inhibition at 10000 µg/mL [4]: 13.2 ± 0.21 mm
- zone of inhibition at 10000 µg/mL [5]: 15.06 ± 0.08 mm
- zone of inhibition at 10000 µg/mL [6]: 10.66 ± 0.08 mm
- zone of inhibition at 10000 µg/mL (Staphylococcus simulans): 13.4 ± 0.25 mm
- zone of inhibition at 10000 µg/mL [7]: 19.1 ± 0.76 mm
- zone of inhibition at 10000 µg/mL [8]: 16.4 ± 0.27 mm
- zone of inhibition at 10000 µg/mL (Bacillus subtilis BAS2): 15.67 ± 0.01 mm
- zone of inhibition at 10000 µg/mL [9]: 13.4 ± 0.25 mm
- zone of inhibition at 10000 µg/mL [10]: 13.6 ± 0.23 mm
- zone of inhibition at 10000 µg/mL (Escherichia coli DH5α): 12.5 ± 0.17 mm
- zone of inhibition at 10000 µg/mL [11]: 13.06 ± 0.08 mm
- zone of inhibition at 10000 µg/mL [12]: 12.7 ± 0.18 mm
- zone of inhibition at 10000 µg/mL (Staphylococcus warneri): 18.76 ± 0.06 mm
- zone of inhibition at 10000 µg/mL [13]: 12.8 ± 0.17 mm
